Measured values from patent publication US20260231940A1, “METHOD FOR ATTRACTING COCKROACHES, COCKROACH ATTRACTANT, AND METHOD FOR CONTROLLING COCKROACHES” (SUMITOMO CHEMICAL COMPANY, LIMITED, priority 2023, published 2026).

Assays:
Format in all cases: in vivo
Blattella germanica [1] = assay: Test Example 4: choice test, methoprene-applied filter paper uneven sheet; settings: 1 g methoprene per 1 m^2, four hours after release, total of eight repetitions
Text: (§1) FIG. 3 is a planar view schematically illustrating the test space used in Test Examples 1 to 5. […] Depending on the test system, a container 2 containing solid feed for MF mouse rats as bait and a container 3 containing water were placed between these two uneven sheets 1.
(§2) A sheet formed from a filter paper (ADVANTEC qualitative filter paper No. 2, manufactured by Toyo Roshi Kaisha, Ltd.) wherein the sheet was a triangular wave shape in its cross-sectional shape as shown in FIG. 2(b) was used. Specifically, an uneven sheet (a corrugated sheet) the depth of the concave portion and the height of the convex portion of which were each 17 mm, and where the concave portions and the convex portions were formed in a corrugated shape so that the angle at the vertices of the concave portions might be 60° was prepared.
(§3) As the uneven sheets 1 placed in the test space 20, all those being 10 cm×16 cm in size were used, and they were placed so that the ridge lines of the corrugations of the uneven sheets 1 were parallel to the lengthwise direction of the test space 20. […]
(§4) In the test space 20 prepared as described above, Blattella germanica (30 individuals in total) were released, and four hours later, the number of individuals settled in each uneven sheet 1 and the number of individuals present in the test space 20 other than the uneven sheets 1 were counted. […]

Blattella germanica [2] = assay: Test Example 3: choice test, bistrifluron-applied filter paper uneven sheet; settings: 1 g bistrifluron per 1 m^2, four hours after release, total of four repetitions
Text: as §1, §2, §3, §4

Blattella germanica [3] = assay: Test Example 5: choice test, hydroprene-applied filter paper uneven sheet; settings: 500 mg hydroprene per 1 m^2, 24 hours after release, total of eight repetitions
Text: as §1, §2, §3
In the test space 20 prepared as described above, Blattella germanica (30 individuals in total) were released, and 24 hours later, the number of individuals settled in each uneven sheet 1 and the number of individuals present in the test space 20 other than the uneven sheets 1 were counted. […]

Blattella germanica [4] = assay: Test Example 2: choice test, pyriproxyfen amount series on uneven sheet; settings: four hours after release, total of four repetitions; for Number of individuals Uneven sheet (chemical applied): 120 released
Description: (§5) Specifically, an uneven sheet (a corrugated sheet) the depth of the concave portion and the height of the convex portion of which were each 10 mm, and where the concave portions and the convex portions were formed in a corrugated shape so that the angle at the vertices of the concave portion might be 53° was prepared. The uneven sheet was used in Test Example 1 and Test Example 2.
as §1
As the uneven sheets 1 placed in the test space 20, all those being 10 cm×16 cm in size were used, and they were placed so that the ridge lines of the corrugations of the uneven sheets 1 were parallel to the lengthwise direction of the test space 20. Additionally, containers 2 and 3 containing feed and water respectively were placed between the facing uneven sheets 1.
In the test space 20 prepared as described above, Blattella germanica (30 individuals in total) were released, and four hours later, the number of individuals settled in each uneven sheet 1 and the number of individuals present in the test space 20 other than the uneven sheets 1 were counted. The above test was conducted in four repetitions.

Sitophilus zeamais = assay: Test Example 1: choice test, chemical-applied versus blank uneven sheet; settings: 1 g pyriproxyfen per 1 m^2, four days after release, total of two repetitions
Description: as §5, §1
(§6) As the uneven sheets 1 placed in the test space 20, all those being 10 cm×10 cm in size were used, and they were placed so that the ridge lines of the corrugations of the uneven sheets 1 were parallel to the lengthwise direction of the test space 20.
(§7) As test insects, Periplaneta americana nymphs, Cimex lectularius, Dermanyssus gallinae, Sitophilus zeamais, and Plodia interpunctella larvae were used. Cimex lectularius and Dermanyssus gallinae were released into each test space 20 where feed and water had not been placed and only corrugated sheets 1 had been placed. Periplaneta americana nymphs were released into test space 20 where containers 2 and 3 containing feed and water respectively placed between the facing uneven sheets 1 as shown in FIG. 3. Sitophilus zeamais and Plodia interpunctella larvae were released into each test space 20 where feed and water had not been placed and brown rice had been placed on uneven sheets 1 as a hiding place for the test insects.
(§8) Four days after releasing the insects, the number of individuals settled in each uneven sheet 1 and the number of individuals present in the test space 20 other than the uneven sheets 1 were counted. The above test was conducted in two repetitions.

[5] = tested on: Periplaneta americana nymphs; assay: as above
Description: as §5, §1, §6, §7, §8

Cimex lectularius = assay: as above; settings: 1 g pyriproxyfen per 1 m^2, four days after release, total of two repetitions
Description: as §5, §1, §6, §7, §8

[6] = tested on: Plodia interpunctella larvae; assay: as above; settings: 1 g pyriproxyfen per 1 m^2, four days after release, total of two repetitions
Description: as §5, §1, §6, §7, §8

Dermanyssus gallinae = assay: as above; settings: 1 g pyriproxyfen per 1 m^2, four days after release, total of two repetitions
Description: as §5, §1, §6, §7, §8

[7] = 60 released, brown rice on sheets

For COC(C)(C)CCC[C@H](C)C/C=C/C(C)=C/C(=O)OC(C)C (racemic) [methoprene], the “Number of individuals Uneven sheet (chemical applied)” value (“Number of individuals Uneven sheet” below) (Blattella germanica [1]; 240 released) was 152 and the “Hiding rate (Chemical applied / Blank)” value (Blattella germanica [1]) was 2.92.
For O=C(NC(=O)c1c(F)cccc1F)Nc1cc(C(F)(F)F)cc(C(F)(F)F)c1Cl [bistrifluron], the “Number of individuals Uneven sheet” value (Blattella germanica [2]; 120 released) was 71 and the “Hiding rate (Chemical applied / Blank)” value (Blattella germanica [2]) was 2.29.
For CCOC(=O)/C=C(C)/C=C/CC(C)CCCC(C)C (centres unmarked) [hydroprene], the “Number of individuals Uneven sheet” value (Blattella germanica [3]; 240 released) was 160 and the “Hiding rate (Chemical applied / Blank)” value (Blattella germanica [3]) was 2.13.
For CC(COc1ccc(Oc2ccccc2)cc1)Oc1ccccn1 (centres unmarked) [pyriproxyfen], the “Number of individuals Uneven sheet” value (Blattella germanica [4]; 10 mg/m^2 pyriproxyfen) was 78, the “Hiding rate (Chemical applied / Blank)” value (Blattella germanica [4]; 10 mg/m^2 pyriproxyfen) was 1.95 and the “Number of individuals Uneven sheet” value (Blattella germanica [4]; 100 mg/m^2 pyriproxyfen) was 70. For the same compound, the “Hiding rate (Chemical applied / Blank)” value (Blattella germanica [4]; 100 mg/m^2 pyriproxyfen) was 1.52, the “Number of individuals Uneven sheet” value (Blattella germanica [4]; 500 mg/m^2 pyriproxyfen) was 98 and the “Hiding rate (Chemical applied / Blank)” value (Blattella germanica [4]; 500 mg/m^2 pyriproxyfen) was 5.44. For the same compound, the “Number of individuals Uneven sheet” value (Blattella germanica [4]; 1000 mg/m^2 pyriproxyfen) was 91, the “Hiding rate (Chemical applied / Blank)” value (Blattella germanica [4]; 1000 mg/m^2 pyriproxyfen) was 3.25 and the “Number of individuals Uneven sheet” value (Blattella germanica [4]; 2000 mg/m^2 pyriproxyfen) was 67. For the same compound, the “Hiding rate (Chemical applied / Blank)” value (Blattella germanica [4]; 2000 mg/m^2 pyriproxyfen) was 1.40, the “Number of individuals Uneven sheet” value (Blattella germanica [4]; 5000 mg/m^2 pyriproxyfen) was 71 and the “Hiding rate (Chemical applied / Blank)” value (Blattella germanica [4]; 5000 mg/m^2 pyriproxyfen) was 1.54. For the same compound, the “Number of individuals Uneven sheet” value (Sitophilus zeamais; [7]) was 21, the “Hiding rate (Chemical applied / Blank)” value (Sitophilus zeamais) was 0.64 and the “Number of individuals Uneven sheet” value ([5]; Periplaneta americana nymphs, 1 g pyriproxyfen per 1 m^2, four days after release, 60 released, total of two repetitions, feed and water placed) was 39. The “Hiding rate (Chemical applied / Blank)” value ([5]; Periplaneta americana nymphs, 1 g pyriproxyfen per 1 m^2, four days after release, total of two repetitions) was 1.86, the attracting effect ([5]; conclusion from Table 1: Periplaneta americana nymphs versus the four other test species) was “specific to cockroaches” and the “Number of individuals Uneven sheet” value (Cimex lectularius; 30 released, no feed or water) was 12. For the same compound, the “Hiding rate (Chemical applied / Blank)” value (Cimex lectularius) was 0.75, the “Number of individuals Uneven sheet” value [6, 7] was 23 and the “Hiding rate (Chemical applied / Blank)” value [6] was 0.62. The “Number of individuals Uneven sheet” value (Dermanyssus gallinae; 59 released, no feed or water) was 17 and the “Hiding rate (Chemical applied / Blank)” value (Dermanyssus gallinae) was 0.94.
